Reference: ChEMBL document CHEMBL1128883, “Synthesis and bioassay of a protein tyrosine phosphatase inhibitor, dephostatin” (Bioorg Med Chem Lett, 1995)

How the values were obtained:
[1] = target: T1, Tyrosine-protein phosphatase non-receptor type 1 (Homo sapiens) (UniProt P18031); experiment: Apparent pseudo-first-order rate constant of inactivation of Protein Tyrosine Phosphatase (PTP) was determined; value given as 0.5-2.8
T1 sequence (whole entry): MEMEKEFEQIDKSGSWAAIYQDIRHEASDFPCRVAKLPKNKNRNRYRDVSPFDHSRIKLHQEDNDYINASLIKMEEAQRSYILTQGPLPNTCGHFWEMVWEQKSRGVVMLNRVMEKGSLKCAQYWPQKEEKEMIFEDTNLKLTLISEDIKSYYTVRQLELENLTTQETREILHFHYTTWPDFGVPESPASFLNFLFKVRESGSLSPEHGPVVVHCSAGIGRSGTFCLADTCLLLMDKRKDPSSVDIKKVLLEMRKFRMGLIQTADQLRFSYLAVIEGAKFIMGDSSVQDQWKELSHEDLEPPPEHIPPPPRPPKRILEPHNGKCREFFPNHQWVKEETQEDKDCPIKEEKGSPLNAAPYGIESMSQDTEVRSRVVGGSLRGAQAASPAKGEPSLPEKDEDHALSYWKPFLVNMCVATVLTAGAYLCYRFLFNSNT

[2] = target: T1, Tyrosine-protein phosphatase non-receptor type 1 (Homo sapiens); experiment: The rate constant for the inactivation of mammalian Protein-tyrosine phosphatase 1 (PTP1 ) was evaluated
[3] = target: T1, Tyrosine-protein phosphatase non-receptor type 1 (Homo sapiens); experiment: Apparent pseudo-first-order rate constant of inactivation of Protein Tyrosine Phosphatase (PTP) was determined; value given as 1-25

CN(N=O)c1cc(O)ccc1O showed a Rate constant [1] of 0.5 mM and a Rate constant [2] of 1.08 M⁻¹ s⁻¹.
In the case of CN(N=O)c1ccccc1, the Rate constant [3] is reported as 1 mM and the Rate constant [2] is reported as 0.0167 M⁻¹ s⁻¹.
